This passage reports TGI and GI50 results from PubChem BioAssay (NCI).

Some test systems named below: NCI/ADR-RES ovarian; SN12C renal; PC-3 prostate; NCI-H522 lung; SF-295 CNS; SK-OV-3 ovarian; HT29 colon; CCRF-CEM leukemia.
What all share (test): NCI-60 cell line screen, 48 h

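Five compound concentrations were applied to cells in 96-well plates for 48 hours; endpoints were derived by simple linear interpolation of the resulting dose-response curve. GI50: concentration for 50% inhibition of growth. At the TGI there is no net growth.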 Where only a bound is given, the exact number is not on record here.

On to `Brc1cccc(C2(CCCC3(c4cccc(Br)n4)OCCO3)OCCO2)n1`, for which the TGI with NCI/ADR-RES ovarian, in the experiment with SN12C renal, in the experiment on PC-3 prostate, in the experiment with NCI-H522 lung, in the experiment on SF-295 CNS and in the experiment with SK-OV-3 ovarian was greater than 100 µM each time.

Turning to `NCCCCNCCCN`, the TGI in the experiment on NCI/ADR-RES ovarian, in the experiment with HT29 colon, in the experiment with PC-3 prostate, in the experiment on NCI-H522 lung, in the experiment on SF-295 CNS and in the experiment with SK-OV-3 ovarian was greater than 100 µM each time.

For the compound `O=C(Nc1ccc2ccccc2c1)Nn1cnnc1`, the TGI in the experiment on HT29 colon, in the experiment on PC-3 prostate, in the experiment with NCI-H522 lung, with CCRF-CEM leukemia, in the experiment with SF-295 CNS and in the experiment on SK-OV-3 ovarian was greater than 100 µM throughout.

As for `Cc1nc2ccccc2c(=O)n1NC(=O)Cc1ccccc1`, the TGI with SN12C renal, with HT29 colon, with PC-3 prostate, in the experiment with NCI-H522 lung, in the experiment on CCRF-CEM leukemia and in the experiment with SF-295 CNS was greater than 100 µM in each case. This compound had a TGI with SK-OV-3 ovarian greater than 100 µM.

Take `CC1(C)Oc2ccc(Cl)cc2C12CC2`: the TGI was 44 µM with NCI/ADR-RES ovarian; 33.6 µM in the experiment with SN12C renal; 34.7 µM in the experiment with HT29 colon; 27.9 µM in the experiment on PC-3 prostate; greater than 100 µM in the experiment on CCRF-CEM leukemia; 27 µM with SF-295 CNS. For the same compound, the TGI with SK-OV-3 ovarian was found to be 44.7 µM.

As for `CC(=O)NC1C(OCc2ccccc2)OC(CO)C(O)C1OCC(=O)NC(C)C(=O)NC(CCC(=O)NCCCCCC(=O)Nc1ccc2c(c1)CN1C(=O)c3ccccc3C1=N2)C(N)=O` (stereo not drawn), the TGI in the experiment with NCI/ADR-RES ovarian, in the experiment with SN12C renal, with HT29 colon, in the experiment on PC-3 prostate, with CCRF-CEM leukemia and in the experiment on SF-295 CNS was greater than 100 µM in each case. In addition, the TGI in the experiment with SK-OV-3 ovarian was greater than 100 µM.

On to `O=C1c2ccccc2C2(c3ccc(Cl)cc3)NCc3ccccc3CN12` (stereo not drawn), for which the TGI with NCI/ADR-RES ovarian is 29.9 µM; in the experiment with SN12C renal it was greater than 100 µM; in the experiment with HT29 colon it was 28.5 µM; in the experiment with PC-3 prostate, 51.3 µM; with CCRF-CEM leukemia, 86.2 µM; with SF-295 CNS, 35.7 µM. For the same compound, the TGI in the experiment with SK-OV-3 ovarian is 80.9 µM.

Turning to `CCC(=N\NC(N)=S)/C(C)=N/O`, the TGI with NCI/ADR-RES ovarian, in the experiment on SN12C renal, in the experiment on HT29 colon, in the experiment with PC-3 prostate, in the experiment on SF-295 CNS and in the experiment with SK-OV-3 ovarian was greater than 100 µM throughout.

`CC(=O)c1ccc2c(c1)oc(=O)n2CCN(C)C`: the TGI in the experiment on NCI/ADR-RES ovarian, in the experiment on HT29 colon, in the experiment with PC-3 prostate, with CCRF-CEM leukemia, in the experiment on SF-295 CNS and in the experiment with SK-OV-3 ovarian was greater than 100 µM each time.

Take `O=C1C=CC2(O[C@@H](Cc3ccccc3)[C@H](Cc3ccccc3)O2)C(SC(=O)c2ccccc2)C1` (stereo partly drawn): the TGI in the experiment with NCI/ADR-RES ovarian amounted to 4.06 µM; with SN12C renal, 3.97 µM; with HT29 colon it was 3.08 µM; with PC-3 prostate, 3.69 µM; in the experiment on CCRF-CEM leukemia it was 1.15 µM; in the experiment on SF-295 CNS it was 4.28 µM. In the experiment on SK-OV-3 ovarian, the TGI was found to be 8.04 µM.

For the compound `CCCCNC(=S)/N=C/c1c(O)c2ccccc2oc1=O`, the TGI in the experiment with NCI/ADR-RES ovarian, in the experiment with SN12C renal, with HT29 colon, in the experiment with PC-3 prostate, with SF-295 CNS and in the experiment on SK-OV-3 ovarian was greater than 100 µM throughout.

Regarding `Cc1ccc(S(=O)(=O)n2cc(-c3cnc(N)c(Br)n3)c3ccccc32)cc1`, the TGI is greater than 25.7 µM in the experiment with NCI/ADR-RES ovarian; 11.9 µM in the experiment with SN12C renal; 9.57 µM with HT29 colon; greater than 31.1 µM with PC-3 prostate; greater than 100 µM with SF-295 CNS; greater than 100 µM in the experiment with SK-OV-3 ovarian.

On to `O=C(/C=C/c1cccs1)c1ccsc1`, for which the TGI with NCI/ADR-RES ovarian is greater than 100 µM; with SN12C renal it was 52.6 µM; in the experiment on HT29 colon, 41.7 µM; in the experiment on PC-3 prostate, 59.1 µM; in the experiment on CCRF-CEM leukemia it was 45.5 µM; with SF-295 CNS, greater than 100 µM. In addition, the TGI with SK-OV-3 ovarian is greater than 100 µM.

For `Cc1cc(NC2=NCCO2)c2c(c1C)CCCC2`, the TGI was 73.1 µM in the experiment with NCI/ADR-RES ovarian; 66.3 µM in the experiment on SN12C renal; 49.7 µM in the experiment on HT29 colon; greater than 100 µM with CCRF-CEM leukemia; 31.8 µM in the experiment with SF-295 CNS; greater than 100 µM in the experiment on SK-OV-3 ovarian.

Consider `CC(C)(C)OC(=O)NC(CCCCNC(=O)OCc1ccccc1)C(=O)NC(CCCCNC(=O)OCc1ccccc1)C(=O)ON1C(=O)CCC1=O` (stereo not drawn), for which the TGI in the experiment on SN12C renal, in the experiment on HT29 colon, in the experiment with PC-3 prostate and in the experiment on CCRF-CEM leukemia was greater than 100 µM throughout.

With `NCCCn1c2c(c3ccc([N+](=O)[O-])cc3c1=O)C(=O)c1cc3c(cc1-2)OCO3`, the GI50 was less than 0.01 µM in the experiment with SN12C renal; 0.148 µM in the experiment on HT29 colon; 1.17 µM with PC-3 prostate; 0.0164 µM in the experiment with CCRF-CEM leukemia; 0.32 µM in the experiment on SK-OV-3 ovarian. In addition, the TGI is 0.385 µM with SN12C renal, greater than 100 µM in the experiment on HT29 colon, 3.56 µM in the experiment on PC-3 prostate and greater than 100 µM in the experiment on CCRF-CEM leukemia.
